Consider 13 compounds from patent US20250215029A1 (Recludix Pharma, Inc., priority 2022, published 2025).

pIC50: −log10 of the molar value.

The first assay concerns the target T1, pY641-STAT6 in PBMC (Homo sapiens, UniProt P42226).
T1 construct: Cryopreserved Peripheral Blood Mononuclear Cells (PBMC) are from AllCells; host or cells: cryopreserved PBMC
T1 sequence (P42226 1-847): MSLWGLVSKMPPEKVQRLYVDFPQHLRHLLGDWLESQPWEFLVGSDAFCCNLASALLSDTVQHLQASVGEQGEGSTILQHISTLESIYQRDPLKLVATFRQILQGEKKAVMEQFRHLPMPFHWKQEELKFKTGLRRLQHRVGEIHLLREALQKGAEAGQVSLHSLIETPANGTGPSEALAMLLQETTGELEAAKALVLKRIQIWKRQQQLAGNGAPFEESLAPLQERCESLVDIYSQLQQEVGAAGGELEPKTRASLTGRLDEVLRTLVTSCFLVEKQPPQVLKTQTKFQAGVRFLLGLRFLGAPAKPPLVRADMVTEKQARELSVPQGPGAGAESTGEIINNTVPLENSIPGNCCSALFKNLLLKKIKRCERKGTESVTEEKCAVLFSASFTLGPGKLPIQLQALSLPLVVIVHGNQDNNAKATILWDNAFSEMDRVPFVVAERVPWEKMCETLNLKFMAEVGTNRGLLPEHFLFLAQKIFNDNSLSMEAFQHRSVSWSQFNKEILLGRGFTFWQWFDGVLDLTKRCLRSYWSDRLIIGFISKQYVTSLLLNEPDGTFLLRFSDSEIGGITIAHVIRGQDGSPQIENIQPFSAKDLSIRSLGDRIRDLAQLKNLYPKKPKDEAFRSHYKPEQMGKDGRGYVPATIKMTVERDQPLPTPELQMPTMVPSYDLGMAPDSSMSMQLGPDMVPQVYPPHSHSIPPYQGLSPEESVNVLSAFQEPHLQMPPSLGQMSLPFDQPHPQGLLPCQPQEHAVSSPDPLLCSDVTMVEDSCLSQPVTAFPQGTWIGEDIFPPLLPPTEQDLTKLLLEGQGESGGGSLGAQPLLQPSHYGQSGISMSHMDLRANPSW
Kind of assay: MSD-pSTAT-PBMC Assay (pSTAT6, IL-4 stimulated). The format is cell-based. To be noted: PBMC, compound 3 hrs, then 1 ng/mL IL-4 for 10 min; Table 115; read-out: STAT6. An outline of the steps:
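PBMC (human, cryopreserved, overnight recovery) + cpd 3 hrs → IL-6 10 ng/mL (STAT3) or IL-4 1 ng/mL (STAT6) ×10 min → lysis with protease/phosphatase inhibitors → MSD capture/phospho detection. IC50, variable slope, DMSO-normalized.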
Turning to “(4-methyl- 112,212,4- triazolidin-3- yl)methyl (((1R)- fluoro(2- (((3S,6S,9aS)-5- oxo-3-((R)-6- (pyridin-3-yl)-4- azaspiro[2.4]heptane- 4- carbonyl)octahydro- 1H-pyrrolo[1,2- a]azepin-6- yl)carbamoyl)-2,3- dihydrobenzo[b] thiophen-5- yl)methyl)(phenoxy) phosphoryl)-L- alaninate [Compound 373]”, the pIC50 is below 5.52.

The assay is the same for the next values; noted with them: STAT6, PBMC, compound 3 hrs, then 1 ng/mL IL-4 for 10 min; Table 115.
As to `CCCOC(=O)[C@@H]1CCCN1P(=O)(Oc1ccccc1)[C@H](F)c1ccc2sc(C(=O)N[C@H]3CCC[C@H]4CC[C@@H](C(=O)N5C[C@H](c6ccccc6)[C@@H](C#N)C56CC6)N4C3=O)cc2c1` (stereo partly drawn) [Compound 487, propyl (((S)-(2-(((3S,6S,9aS)-3-((6S,7R)-7-cyano-6-phenyl-4-azaspiro[2.4]heptane-4-carbonyl)-5-oxooctahydro-1H-pyrrolo[1,2-a]azepin-6-yl)carbamoyl)benzo [b]thiophen-5-yl)fluoromethyl) (phenoxy)phosphoryl)-L-prolinate], the pIC50 is 5.52 to 6.00. `CCCOC(=O)[C@@H]1CCN1P(=O)(Oc1ccccc1)[C@H](F)c1ccc2sc(C(=O)N[C@H]3CCC[C@H]4CC[C@@H](C(=O)N5C[C@H](c6ccccc6)[C@@H](C#N)C56CC6)N4C3=O)cc2c1` (stereo partly drawn) [Compound 488, propyl (2S)-1-(((S)-(2-(((3S,6S,9aS)-3-((6S,7R)-7-cyano-6-phenyl-4-azaspiro[2.4]heptane-4-carbonyl)-5-oxooctahydro-1H-pyrrolo[1,2-a]azepin-6-yl)carbamoyl)benzo [b]thiophen-5-yl)fluoromethyl) (phenoxy)phosphoryl) azetidine-2-carboxylate] showed a pIC50 of 5.52 to 6.00.

`CCCOC(=O)[C@H](C)NP(=O)(Oc1ccccc1)[C@@H](F)c1ccc2sc(C(=O)N[C@H]3CC[C@H](N4CCC4)C[C@H]4CC[C@@H](C(=O)N5C[C@@H](c6ccccc6)[C@H](C#N)C56CC6)N4C3=O)cc2c1` (stereo partly drawn) [Compound 489, propyl (((R)-(2-(((3S,6S,9S,10aR)-9-(azetidin-1-yl)-3-((6R,7S)-7-cyano-6-phenyl-4-azaspiro[2.4]heptane-4-carbonyl)-5-oxodecahydropyrrolo [1,2-a]azocin-6-yl)carbamoyl)benzo [b]thiophen-5-yl)fluoromethyl) (phenoxy)phosphoryl)-L-alaninate] had a pIC50 of 6.00 to 7.00.

The compound `CCCOC(=O)[C@H](C)NP(=O)(Oc1ccccc1)[C@@H](F)c1ccc2sc(C(=O)N[C@H]3CC[C@H](N4CCC4)C[C@H]4CC[C@@H](C(=O)N5C[C@H](c6ccccc6)[C@@H](C#N)C56CC6)N4C3=O)cc2c1` (stereo partly drawn) [Compound 490, propyl (((R)-(2-(((3S,6S,9S,10aR)-9-(azetidin-1-yl)-3-((6S,7R)-7-cyano-6-phenyl-4-azaspiro[2.4]heptane-4-carbonyl)-5-oxodecahydropyrrolo [1,2-a]azocin-6-yl)carbamoyl)benzo [b]thiophen-5-yl)fluoromethyl) (phenoxy)phosphoryl)-L-alaninate] had a pIC50 of 6.00 to 7.00.

Regarding `CCCOC(=O)[C@H](C)NP(=O)(Oc1ccccc1)[C@H](F)c1ccc2sc(C(=O)N[C@H]3CC[C@H](N4CCC4)C[C@H]4CC[C@@H](C(=O)N5C[C@H](c6ccccc6)[C@@H](C#N)C56CC6)N4C3=O)cc2c1` (stereo partly drawn) [Compound 491, propyl (((S)-(2-(((3S,6S,9S,10aR)-9-(azetidin-1-yl)-3-((6S,7R)-7-cyano-6-phenyl-4-azaspiro[2.4]heptane-4-carbonyl)-5-oxodecahydropyrrolo [1,2-a]azocin-6-yl)carbamoyl)benzo [b]thiophen-5-yl)fluoromethyl) (phenoxy)phosphoryl)-L-alaninate], the pIC50 is above 7.00. Consider `CCCOC(=O)[C@H](C)NP(=O)(Oc1ccccc1)[C@H](F)c1ccc2sc(C(=O)N[C@H]3CC[C@H](N4CCC4)C[C@H]4CC[C@@H](C(=O)N5C[C@@H](c6ccccc6)[C@H](C#N)C56CC6)N4C3=O)cc2c1` (stereo partly drawn) [Compound 492, propyl (((S)-(2-(((3S,6S,9S,10aR)-9-(azetidin-1-yl)-3-((6R,7S)-7-cyano-6-phenyl-4-azaspiro[2.4]heptane-4-carbonyl)-5-oxodecahydropyrrolo [1,2-a]azocin-6-yl)carbamoyl)benzo [b]thiophen-5-yl)fluoromethyl) (phenoxy)phosphoryl)-L-alaninate], for which the pIC50 is above 7.00. In the case of `CCCOC(=O)[C@H](C)NP(=O)(Oc1ccccc1)C(F)c1ccc2sc(C(=O)N[C@H]3CCCC[C@H]4CC[C@@H](C(=O)N5C(=O)N(c6cc(=O)n(C)cc6F)C(=O)C56CC6)N4C3=O)cc2c1` (stereo partly drawn) [Compound 976, propyl ((fluoro(2-(((3S,6S,10aS)-3-(6-(5-fluoro-1-methyl-2-oxo-1,2-dihydropyridin-4-yl)-5,7-dioxo-4,6-diazaspiro [2.4]heptane-4-carbonyl)-5-oxodecahydropyrrolo [1,2-a]azocin-6-yl)carbamoyl)benzo [b]thiophen-5-yl)methyl)(phenoxy)phosphoryl)-L-alaninate], the pIC50 is below 5.52. The same measure, in the same setting: the same measure for `CCCOC(=O)[C@H](C)NP(=O)(Oc1ccccc1)C(F)c1ccc2sc(C(=O)N[C@H]3CCCC[C@H]4CC[C@@H](C(=O)N5C(=O)N(c6ccn(C)c(=O)c6)C(=O)C56CC6)N4C3=O)cc2c1` (stereo partly drawn) [Compound 977, propyl ((fluoro(2-(((3S,6S,10aS)-3-(6-(1-methyl-2-oxo-1,2-dihydropyridin-4-yl)-5,7-dioxo-4,6-diazaspiro[2.4]heptane-4-carbonyl)-5-oxodecahydropyrrolo [1,2-a]azocin-6-yl)carbamoyl)benzo [b]thiophen-5-yl)methyl)(phenoxy)phosphoryl)-L-alaninate]: 6.00 to 7.00. `CCCOC(=O)[C@H](C)NP(=O)(Oc1ccccc1)C(F)c1ccc2sc(C(=O)N[C@H]3CCCC[C@H]4CC[C@@H](C(=O)N5C(=O)N(c6ccn(C(C)C)c(=O)c6)C(=O)C56CC6)N4C3=O)cc2c1` (stereo partly drawn) [Compound 981, propyl ((fluoro(2-(((3S,6S,10aS)-3-(6-(1-isopropyl-2-oxo-1,2-dihydropyridin-4-yl)-5,7-dioxo-4,6-diazaspiro [2.4]heptane-4-carbonyl)-5-oxodecahydropyrrolo [1,2-a]azocin-6-yl)carbamoyl)benzo [b]thiophen-5-yl)methyl)(phenoxy)phosphoryl)-L-alaninate] showed a pIC50 below 5.52. Still for that read-out and setting: the same measure for `CCCOC(=O)[C@H](C)NP(=O)(Oc1ccccc1)C(F)c1ccc2sc(C(=O)N[C@H]3CCCC[C@H]4CC[C@@H](C(=O)N5C(=O)N(c6cccc7c6OC(F)(F)O7)C(=O)C56CC6)N4C3=O)cc2c1` (stereo partly drawn) [Compound 982, propyl (((2-(((3S,6S,10aS)-3-(6-(2,2-difluorobenzo[d][1, 3]dioxol-4-yl)-5,7-dioxo-4,6-diazaspiro [2.4]heptane-4-carbonyl)-5-oxodecahydropyrrolo [1,2-a]azocin-6-yl)carbamoyl)benzo [b]thiophen-5-yl)fluoromethyl) (phenoxy)phosphoryl)-L-alaninate]: below 5.52. `CCCOC(=O)[C@H](C)NP(=O)(Oc1ccccc1)C(F)c1ccc2sc(C(=O)N[C@H]3CCCC[C@H]4CC[C@@H](C(=O)N5C(=O)N(c6cccnc6)C(=O)C5(C)C)N4C3=O)cc2c1` (stereo partly drawn) [Compound 989, propyl (((2-(((3S,6S,10aS)-3-(5,5-dimethyl-2,4-dioxo-3-(pyridin-3-yl)imidazolidine-1-carbonyl)-5-oxodecahydropyrrolo [1,2-a]azocin-6-yl)carbamoyl)benzo [b]thiophen-5-yl)fluoromethyl) (phenoxy)phosphoryl)-L-alaninate] had a pIC50 below 5.52.

In the case of `CCCOC(=O)[C@H](C)NP(=O)(Oc1ccccc1)C(F)c1ccc2sc(C(=O)N[C@H]3CCCC[C@H]4CC[C@@H](C(=O)N5C(=O)N(c6cccnc6)C(=O)C56CCC6)N4C3=O)cc2c1` (stereo partly drawn) [Compound 992, propyl (((2-(((3S,6S,10aS)-3-(6,8-dioxo-7-(pyridin-3-yl)-5,7-diazaspiro[3.4]octane-5-carbonyl)-5-oxodecahydropyrrolo [1,2-a]azocin-6-yl)carbamoyl)benzo [b]thiophen-5-yl)fluoromethyl) (phenoxy)phosphoryl)-L-alaninate], the pIC50 is 6.00 to 7.00.
